We go through 21 compounds from PubChem BioAssay (NCI).

“And” between values parts separate entries of the source, which are not always exact repeats. Equal entries are not always repeated.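 Each compound was tested at five concentrations against cells in 96-well plates for 48 hours. At the GI50, growth is halved. TGI: concentration producing complete growth inhibition.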 Where only a bound is given, the exact number is not on record here.

One assay relates to HCT-15 colon. As to the kind of experiment: inhibition of tumour cell growth, NCI panel, 48 h.
Turning to `Nc1nccc2c1ccn2-c1ccc(NC(=O)c2ccc(N3CCOCC3)c(C(F)(F)F)c2)cc1`, the GI50 was 0.811 µM and the TGI amounted to 10.5 µM.

For `Cc1[nH]c2ccccc2c1-c1cc(-c2cc(-c3c(C)[nH]c4ccccc34)on2)no1`, the TGI was over 100 µM.

Take `Cn1cnc([N+](=O)[O-])c1S(=O)(=O)Oc1ccccc1`: the GI50 is 2.74 µM and the TGI is over 28.4 µM.

In the case of `COc1cc(C2c3cc4c(cc3C(O)C(CO)C2CO)OCO4)cc(OC)c1OC` (centres undefined), the GI50 was 4.41 µM and the TGI was over 100 µM.

In the case of `O=c1n(-c2ccccc2)c(=O)n2n1C1C=CC2C2C(C1)C2(Cl)Cl` (centres undefined), the TGI was over 100 µM.

Turning to `CCCNC(=S)/N=C/c1c(O)c2ccccc2[nH]c1=O`, the TGI is over 100 µM.

In turn, `COC1C(O)=C2C(=O)O/C(C)=C/C=C/C=C/C=C\CC(c3ccccc3)NC(=O)\C=C/C=C\C=C\C=C\[C@@]2(C)[C@@H]1O` (some centres undefined) came in with a TGI of 0.0834 µM.

`COc1ccc(-c2oc(=O)ccc2-c2cc(OC)c(OC)c(OC)c2)cc1F`: the GI50 is 5.42 µM and the TGI is over 100 µM.

For the compound `O=C(c1ccc(F)c(F)c1Nc1ccc(I)cc1F)N1CC(O)([C@@H]2CCCCN2)C1`, the GI50 was 1.22 µM and 1.92 µM; the TGI is 16.8 µM and > 10 µM.

The compound `Oc1cc(O)c2c(c1)OC(c1ccc(O)c(O)c1)C(OC1(c3cc(O)c(O)c(O)c3)Oc3cc(O)cc(O)c3C(O)C1O)C2` (centres undefined) yielded a TGI of over 100 µM.

`CCOc1ccc2nc(S/C(=C/C=C(C#N)C#N)c3ccc(C)cc3)sc2c1`: the GI50 was 12.2 µM and the TGI amounted to 28.8 µM.

`COc1ccc(NC(=O)/C(N=O)=C(/C)O)cc1` registered a TGI of 36.8 µM.

Compound `CC(=O)OC12c3ccccc3-c3ccccc3C1C1C(=O)N(C)C(=O)C12Cl` (centres undefined) had a TGI of over 10 µM.

In the case of `CCN(CC)CCOc1ccc(/C=C2\CC3C4CC=C5C[C@@H](O)CC[C@]5(C)C4CC[C@]3(C)C2=O)cc1OC` (some centres undefined), the GI50 is 2.27 µM and the TGI was 6.19 µM.

`COc1ccc(-c2cc(-c3ccccc3)c(C#N)c(=O)n2C2OC(CO)C(O)C(O)C2O)cc1` (centres undefined) gave a TGI of over 100 µM.

In turn, `O=C(O)CSc1n[nH]c(-c2ccccc2)n1` returned a TGI of over 100 µM.

Compound `CCc1cccc(C)c1NC(=O)C(=O)Cc1nc2ccccc2o1` showed a TGI of over 100 µM.

As for `O=C(O)[C@H](NS(=O)(=O)c1ccc2ccccc2c1)c1ccccc1`, the TGI was over 100 µM.

Compound `O=C1c2ccccc2C2(O)c3cc4ccccc4cc3OC12O` (centres undefined) yielded a TGI of over 100 µM.

In the case of `CN(C)c1c([O-])c(=[N+](C)C)c1=O`, the TGI is over 100 µM.

The subject of a further assay is HL-60(TB) leukemia. The assay can be described thus: inhibition of tumour cell growth, NCI panel, 48 h.
As to `Nc1nccc2c1ccn2-c1ccc(NC(=O)c2ccc(N3CCOCC3)c(C(F)(F)F)c2)cc1`, the GI50 is 0.479 µM.

Consider `Cc1[nH]c2ccccc2c1-c1cc(-c2cc(-c3c(C)[nH]c4ccccc34)on2)no1`, for which the TGI is over 100 µM.

Regarding `Cn1cnc([N+](=O)[O-])c1S(=O)(=O)Oc1ccccc1`, the GI50 is 12.1 µM and the TGI turned out to be 34.4 µM.

For the compound `COc1cc(C2c3cc4c(cc3C(O)C(CO)C2CO)OCO4)cc(OC)c1OC` (centres undefined), the GI50 is 0.322 µM.

As to `O=c1n(-c2ccccc2)c(=O)n2n1C1C=CC2C2C(C1)C2(Cl)Cl` (centres undefined), the TGI is over 100 µM.

`CCCNC(=S)/N=C/c1c(O)c2ccccc2[nH]c1=O` yielded a TGI of over 100 µM.

`COC1C(O)=C2C(=O)O/C(C)=C/C=C/C=C/C=C\CC(c3ccccc3)NC(=O)\C=C/C=C\C=C\C=C\[C@@]2(C)[C@@H]1O` (some centres undefined) showed a TGI of 0.0421 µM.

Consider `COc1ccc(-c2oc(=O)ccc2-c2cc(OC)c(OC)c(OC)c2)cc1F`, for which the GI50 is 3.52 µM and the TGI is 26.8 µM.

`O=C(c1ccc(F)c(F)c1Nc1ccc(I)cc1F)N1CC(O)([C@@H]2CCCCN2)C1`: the GI50 was < 0.0172 µM and 0.00962 µM; the TGI is 2.33 µM and > 10 µM.

On to `Oc1cc(O)c2c(c1)OC(c1ccc(O)c(O)c1)C(OC1(c3cc(O)c(O)c(O)c3)Oc3cc(O)cc(O)c3C(O)C1O)C2` (centres undefined), for which the TGI came to 52.8 µM.

With `CCOc1ccc2nc(S/C(=C/C=C(C#N)C#N)c3ccc(C)cc3)sc2c1`, the GI50 is 4.55 µM and the TGI was found to be 20.4 µM.

`COc1ccc(NC(=O)/C(N=O)=C(/C)O)cc1` gave a TGI of over 100 µM.

Turning to `CC(=O)OC12c3ccccc3-c3ccccc3C1C1C(=O)N(C)C(=O)C12Cl` (centres undefined), the TGI is over 10 µM.

For `CCN(CC)CCOc1ccc(/C=C2\CC3C4CC=C5C[C@@H](O)CC[C@]5(C)C4CC[C@]3(C)C2=O)cc1OC` (some centres undefined), the GI50 is 10.1 µM and the TGI is 22.3 µM.

Regarding `COc1ccc(-c2cc(-c3ccccc3)c(C#N)c(=O)n2C2OC(CO)C(O)C(O)C2O)cc1` (centres undefined), the TGI is over 100 µM.

`O=C(O)CSc1n[nH]c(-c2ccccc2)n1` yielded a TGI of over 100 µM.

As to `CCc1cccc(C)c1NC(=O)C(=O)Cc1nc2ccccc2o1`, the TGI is over 100 µM.

In turn, `O=C(O)[C@H](NS(=O)(=O)c1ccc2ccccc2c1)c1ccccc1` showed a TGI of over 100 µM.

For the compound `CCOc1ccc2c(c1)[n+]([O-])c(-c1ccccc1Cl)c(N)[n+]2[O-]`, the TGI was over 100 µM.

`CN(C)c1c([O-])c(=[N+](C)C)c1=O` yielded a TGI of over 100 µM.

Another assay deals with OVCAR-4 ovarian. As to the kind of experiment: inhibition of tumour cell growth, NCI panel, 48 h.
Take `Nc1nccc2c1ccn2-c1ccc(NC(=O)c2ccc(N3CCOCC3)c(C(F)(F)F)c2)cc1`: the GI50 is 1.96 µM and the TGI stood at 24.6 µM.

For the compound `Cc1[nH]c2ccccc2c1-c1cc(-c2cc(-c3c(C)[nH]c4ccccc34)on2)no1`, the TGI was over 100 µM.

On to `Cn1cnc([N+](=O)[O-])c1S(=O)(=O)Oc1ccccc1`, for which the GI50 is 3.22 µM and the TGI is 15.1 µM.

On to `COc1cc(C2c3cc4c(cc3C(O)C(CO)C2CO)OCO4)cc(OC)c1OC` (centres undefined), for which the GI50 is 7.6 µM and the TGI was over 100 µM.

For the compound `O=c1n(-c2ccccc2)c(=O)n2n1C1C=CC2C2C(C1)C2(Cl)Cl` (centres undefined), the TGI was over 100 µM.

On to `CCCNC(=S)/N=C/c1c(O)c2ccccc2[nH]c1=O`, for which the TGI is over 100 µM.

`COC1C(O)=C2C(=O)O/C(C)=C/C=C/C=C/C=C\CC(c3ccccc3)NC(=O)\C=C/C=C\C=C\C=C\[C@@]2(C)[C@@H]1O` (some centres undefined) showed a TGI of 1.85 µM.

On to `COc1ccc(-c2oc(=O)ccc2-c2cc(OC)c(OC)c(OC)c2)cc1F`, for which the GI50 is 36.5 µM and the TGI was over 100 µM.
